Experimental data taken from US20250144099A1, “INK4 TUMOR SUPPRESSOR PROTEINS MEDIATE RESISTANCE TO CDK4/6 KINASE INHIBITORS” (MEMORIAL SLOAN-KETTERING CANCER CENTER, priority 2021, published 2025).
Entries after “also recorded” stand apart in the source; their conditions may differ.

Tests used:
Pharmacokinetic study = format: in vivo, C57BL/6 male mice
Procedure: Pharmacokinetic study. C57BL/6 male mice were dosed with BSJ-05-017 solution formulation (i.p., 5/95 DMSO/10% captisol, dose 25 mg/kg) and BSJ-03-096 solution formulation (p.o., 5/95 DMSO/10%, dose 10 mg/kg). Blood samples were collected at 0.08, 0.25, 0.5, 1, 2, 4, 6, 8 and 24 hr. The blood samples were collected from sets of three mice at each time point in microcentrifuge tubes containing K2EDTA as an anticoagulant. Plasma samples were separated by centrifugation and stored below −70° C. until bioanalysis. All samples were processed for analysis by precipitation using acetonitrile and analyzed with a partially validated LC/MS/MS method (LLOQ −1.22 ng/mL for IV and PO, LLOQ −5.02 ng/mL for IP). Pharmacokinetic parameters were calculated using the noncompartmental analysis tool of WinNonlin Enterprise software (Version 6.3).

MCF-7 parental cells = experiment: Senescence Green staining and cell cycle analysis; format: cell-based, human; conditions: 500 nM; senescence 8 days, cell cycle 24 h
Procedure: Senescence analysis. […] Cells were harvested using trypsin/EDTA, then stained with the CellEvent Senescence Green Flow Cytometry Assay Kit (Invitrogen) according to the manufacturer's instructions. Briefly, cells were fixed with 2% paraformaldehyde for 15 min at room temperature and stained with the CellEvent Senescence Green Probe for 2 hours at 37° C. without CO2. After incubation, cells were washed with PBS 3 times and resuspended in FACS buffer (PBS with 2% FBS) for analysis on BD Biosciences LSR Fortessa using a 488 nm laser and 530 nm/30 filter (BD Biosciences). Data analysis was performed with FCS Express 7 (De Novo Software).
Cell cycle analysis. […] Cells were detached from the cell culture dish with trypsin/EDTA, then washed with PBS and fixed in 70% ice-cold EtOH overnight. Prior to staining, EtOH was removed, and cells were washed twice with FACS buffer. Cells were then resuspended in staining buffer containing 1000 μl FACS buffer with 2 μg/ml propidium iodide (Invitrogen) and 100 μg/ml RNase A (Invitrogen). Cell cycle profiles were measured with BD Biosciences LSR Fortessa and analyzed with FCS Express 7.

[1] = tested on: patient-derived xenograft models; experiment: Patient-derived xenograft tumor growth; format: in vivo, mice; conditions: two patient-derived xenograft models; ribociclib at clinical equivalent dose
CDK6 = CDK6 (Homo sapiens, UniProt Q00534); experiment: Immunoblotting of CDK6 degradation in cells; format: cell-based; set-up: MCF7 cells that lost FAT1 expression and with high CDK6 expression; endogenous in cells; host or cells: MCF-7 FAT1 loss cells (also MCF-7 parental)
Procedure: Cell lysates were collected in RIPA buffer (Thermo Fisher Scientific) supplemented with protease and phosphatase inhibitors (Pierce). Protein concentration was quantified by using the BCA kit (Fisher Scientific). […] of protein lysates were loaded onto 4-12% SDS-PAGE gels (Invitrogen) for electrophoresis and transferred onto nitrocellular membranes. Blots were blocked with Intercept™ (TBS) Blocking Buffer (LI-COR Bioscience #927-60001) and incubated with primary antibody at 4° C. overnight. Secondary antibodies conjugated with fluorescence (LI-COR Bioscience #926-68071 and #926-32210) were incubated for 1 h at room temperature and blots were scanned by Odyssey Clx Imaging System from LI-COR Bioscience.

[2] = tested on: T47D parental and CDK6-overexpressing cells; experiment: Cell proliferation assay; format: cell-based, human; conditions: recorded at day 3, day 5 and day 7
Procedure: Cell viability was measured by Resazurin (R&D Systems, Minneapolis, MN, USA) as described previously (51). Briefly, 1,500 cells were seeded in a 96-well plate and allowed to recover overnight. Cells were treated with drugs at day 0. Resazurin was added to the cells 4 hours prior to the measurements on day 3, day 5 and day 7. Fluorescent intensity was measured using a microplate reader (SpectraMax M5, Molecular Devices, Sunnyvale, CA, USA). IC50 was calculated by GraphPad Prism 7.0 using a sigmoidal regression model.

[3] = tested on: prostate cancer cell 22RV1; experiment: Colony formation assay; format: cell-based; conditions: 21 days treatment
[4] = tested on: CDK6-high (FAT-1 loss) tumors; experiment: Pharmacodynamic study in tumor-bearing mice (immunoblotting of tumors); format: in vivo, NSG mice; conditions: 25 mg/kg i.p., 3 consecutive days, tumors collected at 6 h
Procedure: Pharmacodynamic study. NOD.Cg-Prkdc Il2rg<tm1Wjl>/SzJ (NSG) mice were obtained from the Jackson Laboratory (Stock #: 005557). Each mouse was injected with FAT1 loss cells subcutaneously 1 week after the implantation of estradiol pellets (25 mg). After the tumors reached 200 mm^3, mice were treated for 3 consecutive days with BSJ-05-017 at 25 mg/kg. Tumors were collected at 6 h. Lysates were prepared by homogenization in SDS-lysis buffer (˜1 ml/mg tissue) (50 mM Tris-HCl pH 7.4, 2% SDS) and boiled for 10 min, followed by brief sonication as described previously (65). Lysates were cleared by centrifugation at 14,000 g for 10 min and the supernatant was collected for western blotting.

Sequence of CDK6 (Q00534 whole entry): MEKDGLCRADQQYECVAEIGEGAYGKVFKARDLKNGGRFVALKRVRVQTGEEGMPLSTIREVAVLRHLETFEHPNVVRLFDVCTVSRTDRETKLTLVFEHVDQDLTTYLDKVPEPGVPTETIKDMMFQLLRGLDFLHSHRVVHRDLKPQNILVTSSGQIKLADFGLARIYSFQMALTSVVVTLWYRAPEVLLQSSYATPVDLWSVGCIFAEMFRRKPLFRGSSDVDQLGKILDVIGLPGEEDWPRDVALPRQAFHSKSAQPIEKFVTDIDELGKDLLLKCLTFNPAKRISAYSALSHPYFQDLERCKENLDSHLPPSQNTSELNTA

- Cmax (Pharmacokinetic study; male, C57BL/6, mouse, plasma, ip, single dose 25 mg/kg i.p.): 2600 nM
- concentration at 24 h (Pharmacokinetic study; male, C57BL/6, mouse, plasma, ip, single dose 25 mg/kg i.p., read-out: plasma concentration at 24h post dosing): ~100 nM
- metabolic stability (Pharmacokinetic study; single dose in mice, i.p. or p.o.): good metabolic stability
- degradation of CDK6 (CDK6; MCF7 cells with overexpression of CDK6): effectively degrade CDK4 and CDK6
SMILES: CC(=O)c1c(C)c2cnc(Nc3ccc(N4CCN(CCCCC(=O)N[C@H](C(=O)N5C[C@H](O)C[C@H]5C(=O)N[C@@H](C)c5ccc(-c6scnc6C)cc5)C(C)(C)C)CC4)cn3)nc2n(C2CCCC2)c1=O [BSJ-05-017, (2S,4R)-1-((S)-2-(5-(4-(6-((6-acetyl-8-cyclopentyl-5-methyl-7-oxo-7,8-dihydropyrido[2,3-d]pyrimidin-2-yl)amino)pyridin-3-yl)piperazin-1-yl)pentanamido)-3,3-dimethylbutanoyl)-4-hydroxy-N—((S)-1-(4-(4-methylthiazol-5-yl)phenyl)ethyl)pyrrolidine-2-carboxamide]
- senescence and cell cycle arrest (MCF-7 parental cells): induces senescence and cell cycle arrest to a same extent as abemaciclib and palbociclib
- inhibition of tumor growth [1]: effective in inhibiting tumor growth
- degradation of CDK6 (CDK6; FAT1 loss / CDK6-high CDK4/6i-resistant MCF7 cells, 24 h treatment): most significant degradation of both CDK4 and CDK6; also recorded: high potency in degrading CDK4 and CDK6
- inhibition of cell growth [2]: inhibits the growth of both T47D parental and CDK6-overexpressing cells
- colony formation [3]: more sensitive to BSJ-05-017 than to palbociclib
- Rb1 phosphorylation and E2F1 expression in tumors [4]: significant suppression of Rb1 phosphorylation and E2F1 expression
- degradation of CDK4 and CDK6 in tumors [4]: near complete degradation of CDK4 and CDK6
